# In ChEMBL document CHEMBL1201862, “PubChem BioAssay data set” (2004):
#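 96-well plates; 48 h exposure; 5 concentrations. Endpoints by linear interpolation between flanking doses. Not reached: highest tested concentration assigned. At the GI50, growth is halved.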 Active and inactive are the calls of the source. Cut-off read from the data, not from the text of the source: active = GI50 up to about 1.1 µM and inactive = higher.
# Legend:
# Experiment in all cases: growth of human tumour cells (NCI), 48 h
# ACHN = test system: ACHN
# CAKI-1 = test system: CAKI-1
# CCRF-CEM = test system: CCRF-CEM
# HCT-116 = test system: HCT-116
# K562 = test system: K562
# LOX IMVI = test system: LOX IMVI
# Malme-3M = test system: Malme-3M
# OVCAR-3 = test system: OVCAR-3
# OVCAR-5 = test system: OVCAR-5
# RXF 393 = test system: RXF 393
# SF-268 = test system: SF-268
# SF-295 = test system: SF-295
# SK-MEL-2 = test system: SK-MEL-2
# UACC-257 = test system: UACC-257
# UACC-62 = test system: UACC-62
# UO-31 = test system: UO-31
# HCT-15 = test system: HCT-15
# MCF7 = test system: MCF7
# T47D = test system: T47D
# MDA-N = test system: MDA-N
Compound,GI50 (ACHN),GI50 (CAKI-1),GI50 (CCRF-CEM),GI50 (HCT-116),GI50 (K562),GI50 (LOX IMVI),GI50 (Malme-3M),GI50 (OVCAR-3),GI50 (OVCAR-5),GI50 (RXF 393),GI50 (SF-268),GI50 (SF-295),GI50 (SK-MEL-2),GI50 (UACC-257),GI50 (UACC-62),GI50 (UO-31),GI50 (HCT-15) [µM],GI50 (MCF7),GI50 (T47D),GI50 (MDA-N)
c1ccc2c(c1)[Se]c1ccccc1[Se]2,> 100 µM (inactive),67.1 µM (inactive),57.8 µM (inactive),28.1 µM (inactive),> 100 µM (inactive),> 100 µM (inactive),> 100 µM (inactive),> 100 µM (inactive),> 100 µM (inactive),61.8 µM (inactive),> 100 µM (inactive),25.6 µM (inactive),> 100 µM (inactive),> 100 µM (inactive),> 100 µM (inactive),51.6 µM (inactive),,,,
CC[N+]1(C)CCC(O)(/C=C/c2ccc(Cl)c(Cl)c2)C(C(=O)/C=C/c2ccc(Cl)c(Cl)c2)C1 (configuration not stated),1.98 µM (inactive),4.07 µM (inactive),1.38 µM (inactive),1.57 µM (inactive),1.55 µM (inactive),1.39 µM (inactive),1.62 µM (inactive),3.09 µM (inactive),2.62 µM (inactive),2.04 µM (inactive),2.67 µM (inactive),4.14 µM (inactive),3.86 µM (inactive),2.38 µM (inactive),1.74 µM (inactive),1.83 µM (inactive),2.17,2.36 µM (inactive),1.8 µM (inactive),
C=CC[C@H]1[C@@H](O[Si](C)(C)C(C)(C)C)[C@H](n2ccc(=O)[nH]c2=O)O[C@@H]1CO[Si](C)(C)C(C)(C)C,2.33 µM (inactive),2.23 µM (inactive),2.52 µM (inactive),1.47 µM (inactive),2.2 µM (inactive),1.63 µM (inactive),2.89 µM (inactive),1.52 µM (inactive),1.5 µM (inactive),1.56 µM (inactive),2.99 µM (inactive),1.98 µM (inactive),2.62 µM (inactive),2.45 µM (inactive),1.74 µM (inactive),1.69 µM (inactive),1.77,1.77 µM (inactive),2.61 µM (inactive),
O=CN/C=C/c1cc(O)ccc1O [ERBSTATIN],14.8 µM (inactive),12.4 µM (inactive),4.11 µM (inactive),15.7 µM (inactive),14.8 µM (inactive),14 µM (inactive),17.9 µM (inactive),9.35 µM (inactive),> 85.7 µM (inactive),13 µM (inactive),17.2 µM (inactive),58.1 µM (inactive),29.3 µM (inactive),13.5 µM (inactive),13.7 µM (inactive),29.7 µM (inactive),13.3,11.3 µM (inactive),,
CCC1(CC)C(=O)CC[C@@]2(C)C1=CC[C@H]1[C@@H]3CC[C@H](O)[C@@]3(C)CC[C@@H]12,40.4 µM (inactive),83.8 µM (inactive),19.6 µM (inactive),22.2 µM (inactive),16.4 µM (inactive),19.4 µM (inactive),36.1 µM (inactive),19.7 µM (inactive),53.3 µM (inactive),36.6 µM (inactive),32.5 µM (inactive),22.8 µM (inactive),79.3 µM (inactive),26.7 µM (inactive),54.7 µM (inactive),18.4 µM (inactive),46.9,,28.9 µM (inactive),31.3 µM (inactive)
O=C(NNC(=S)Nc1ccc(Br)cc1)c1cc(-c2ccccc2)nc2ccccc12,34.8 µM (inactive),29.8 µM (inactive),22.1 µM (inactive),16.7 µM (inactive),25.2 µM (inactive),,17.3 µM (inactive),17 µM (inactive),24.9 µM (inactive),18.4 µM (inactive),33.3 µM (inactive),19.2 µM (inactive),20 µM (inactive),23.2 µM (inactive),20 µM (inactive),17.1 µM (inactive),24,18.4 µM (inactive),17.1 µM (inactive),
O=C(Nc1ccccc1C(=O)NCc1ccccc1)/C(=C/c1ccccc1O)NC(=O)c1ccccc1,61 µM (inactive),> 100 µM (inactive),> 100 µM (inactive),> 100 µM (inactive),> 100 µM (inactive),98.2 µM (inactive),,> 100 µM (inactive),> 100 µM (inactive),48.9 µM (inactive),54.1 µM (inactive),49.9 µM (inactive),> 100 µM (inactive),> 100 µM (inactive),33.7 µM (inactive),65.6 µM (inactive),24.7,5.32 µM (inactive),19.5 µM (inactive),
O=C1NC(=O)C(CCC(=O)c2ccc3ccccc3c2)C(=O)N1,> 100 µM (inactive),> 100 µM (inactive),> 100 µM (inactive),> 100 µM (inactive),> 100 µM (inactive),> 100 µM (inactive),> 100 µM (inactive),> 100 µM (inactive),> 100 µM (inactive),> 100 µM (inactive),> 100 µM (inactive),> 100 µM (inactive),> 100 µM (inactive),> 100 µM (inactive),> 100 µM (inactive),> 100 µM (inactive),> 100,,,
C=C[C@@]1(C)CC(=O)[C@]2(O)[C@@]3(C)[C@@H](OC(C)=O)CCC(C)(C)[C@@H]3[C@H](O)[C@H](OC(C)=O)[C@@]2(C)O1,> 100 µM (inactive),> 100 µM (inactive),,> 100 µM (inactive),> 100 µM (inactive),> 100 µM (inactive),,> 100 µM (inactive),> 100 µM (inactive),,,> 100 µM (inactive),> 100 µM (inactive),> 100 µM (inactive),> 100 µM (inactive),> 100 µM (inactive),> 100,> 100 µM (inactive),> 100 µM (inactive),> 100 µM (inactive)
Cc1ccccc1N1C(N)=C(C#N)C(C#N)(C#N)C1c1ccccc1 (configuration not stated),16.1 µM (inactive),25.9 µM (inactive),14.7 µM (inactive),18 µM (inactive),,17.7 µM (inactive),16.4 µM (inactive),17.2 µM (inactive),21.9 µM (inactive),15.3 µM (inactive),20.9 µM (inactive),24.7 µM (inactive),25.9 µM (inactive),17 µM (inactive),17.9 µM (inactive),16.8 µM (inactive),16.6,23.6 µM (inactive),12.5 µM (inactive),
O=c1cc2oc3ccc4ccccc4c3cc-2c(=O)[nH]1,17 µM (inactive),15.3 µM (inactive),1.07 µM (active),17.1 µM (inactive),19.8 µM (inactive),7.71 µM (inactive),16.2 µM (inactive),11.4 µM (inactive),17.6 µM (inactive),,12.7 µM (inactive),20.7 µM (inactive),17.3 µM (inactive),16.4 µM (inactive),17.9 µM (inactive),11 µM (inactive),7.55,19.1 µM (inactive),,11.3 µM (inactive)
NCCCC(N)(C(=O)O)C(F)F (configuration not stated) [EFLORNITHINE],> 100 µM (inactive),1570 µM (inactive),> 1580 µM (inactive),815 µM (inactive),> 2880 µM (inactive),678 µM (inactive),> 5000 µM (inactive),> 3940 µM (inactive),,> 5000 µM (inactive),> 5000 µM (inactive),2270 µM (inactive),> 5000 µM (inactive),> 5000 µM (inactive),> 5000 µM (inactive),> 5000 µM (inactive),769,> 5000 µM (inactive),,
COC(=O)C(=O)C(C(=O)OC)C(=O)C(=O)Nc1c(C)cccc1C (configuration not stated),> 100 µM (inactive),> 100 µM (inactive),48.2 µM (inactive),> 100 µM (inactive),> 100 µM (inactive),> 100 µM (inactive),> 100 µM (inactive),> 100 µM (inactive),> 100 µM (inactive),> 100 µM (inactive),> 100 µM (inactive),> 100 µM (inactive),> 100 µM (inactive),> 100 µM (inactive),> 100 µM (inactive),> 100 µM (inactive),> 100,,,
O=S1(=O)OCCOS(=O)(=O)C1(F)Cc1ccccc1,> 100 µM (inactive),> 100 µM (inactive),> 100 µM (inactive),> 100 µM (inactive),> 100 µM (inactive),> 100 µM (inactive),> 100 µM (inactive),> 100 µM (inactive),> 100 µM (inactive),> 100 µM (inactive),> 100 µM (inactive),> 100 µM (inactive),> 100 µM (inactive),,> 100 µM (inactive),> 100 µM (inactive),> 100,,> 100 µM (inactive),> 100 µM (inactive)
Cc1ccc(C(=O)/C=C/c2ccccc2O)c(C)c1,> 100 µM (inactive),> 100 µM (inactive),30.1 µM (inactive),> 100 µM (inactive),> 100 µM (inactive),> 100 µM (inactive),> 100 µM (inactive),> 100 µM (inactive),> 100 µM (inactive),> 100 µM (inactive),93.3 µM (inactive),> 100 µM (inactive),> 100 µM (inactive),> 100 µM (inactive),> 100 µM (inactive),> 100 µM (inactive),> 100,,,
COc1cccc(SSc2cccc(OC)c2C(=O)O)c1C(=O)O,> 100 µM (inactive),> 100 µM (inactive),> 100 µM (inactive),> 100 µM (inactive),> 100 µM (inactive),> 100 µM (inactive),> 100 µM (inactive),> 100 µM (inactive),> 100 µM (inactive),> 100 µM (inactive),> 100 µM (inactive),> 100 µM (inactive),> 100 µM (inactive),> 100 µM (inactive),> 100 µM (inactive),> 100 µM (inactive),> 100,,,
